Results from patent publication US6191118A (Taisho Pharmaceutical Co., Ltd., priority 1996, dated 2001).
Values after ≈ are worked out from the molar mass of the structure shown.

Assays:
Type in all cases: cell-based
S. aureus J-109 = experiment: In vitro antibacterial activity (MIC), S. aureus J-109; settings: Staphylococcus aureus, J109, sensitive disc media, Japan Society of Chemotherapy method, read-out: MIC (Minimum Inhibitory Concentration)
Experimental: (§1) The in vitro antibacterial activity of the compound obtained in Example 4 as an example of the compound of the present invention against various experimental bacteria was measured using sensitive disc media (produced by Eiken Chemical Co.) according to the MIC measuring method specified by the Japan Society of Chemotherapy. Clarithromycin was used as a comparative drug.

S. pneumoniae IID 553 = experiment: In vitro antibacterial activity (MIC), S. pneumoniae IID 553; settings: Streptococcus pneumoniae, IID553, sensitive disc media, Japan Society of Chemotherapy method, read-out: MIC (Minimum Inhibitory Concentration)
Experimental: as §1

S. aureus B1 = experiment: In vitro antibacterial activity (MIC), S. aureus B1; settings: Staphylococcus aureus, sensitive disc media, Japan Society of Chemotherapy method, read-out: MIC (Minimum Inhibitory Concentration)
Experimental: as §1

S. pneumoniae BM 210 = experiment: In vitro antibacterial activity (MIC), S. pneumoniae BM 210; settings: Streptococcus pneumoniae, BM210, sensitive disc media, Japan Society of Chemotherapy method, read-out: MIC (Minimum Inhibitory Concentration)
Experimental: as §1

S. pneumoniae BM 205 = experiment: In vitro antibacterial activity (MIC), S. pneumoniae BM 205; settings: Streptococcus pneumoniae, BM205, sensitive disc media, Japan Society of Chemotherapy method, read-out: MIC (Minimum Inhibitory Concentration)
Experimental: as §1

[1] = test system: erythromycin-resistant bacteria; experiment: Antibacterial activity against erythromycin-resistant bacteria (in words)
Experimental: as §1

S. aureus 209P-JC = experiment: In vitro antibacterial activity (MIC), S. aureus 209P-JC; settings: Staphylococcus aureus, sensitive disc media, Japan Society of Chemotherapy method, read-out: MIC (Minimum Inhibitory Concentration)
Experimental: as §1

[2] = test system: erythromycin-sensitive bacteria; experiment: Antibacterial activity against erythromycin-sensitive bacteria (in words)
Experimental: as §1

S. aureus Smith = experiment: In vitro antibacterial activity (MIC), S. aureus Smith; settings: Staphylococcus aureus, sensitive disc media, Japan Society of Chemotherapy method, read-out: MIC (Minimum Inhibitory Concentration)
Experimental: as §1

Row | Compound | MIC (S. aureus J-109) [µg/mL] | MIC (S. pneumoniae IID 553) [µg/mL] | MIC (S. aureus B1) [µg/mL] | MIC (S. pneumoniae BM 210) [µg/mL] | MIC (S. pneumoniae BM 205) [µg/mL] | antibacterial activity [1] | MIC (S. aureus 209P-JC) [µg/mL] | antibacterial activity [2] | MIC (S. aureus Smith) [µg/mL]
1 | CC[C@H]1OC(=O)[C@H](C)[C@@H](O[C@H]2C[C@@](C)(OC)[C@@H](O)[C@H](C)O2)[C@H](C)[C@@H](O[C@@H]2O[C@H](C)C[C@H](N(C)C)[C@H]2O)[C@](C)(OC)C[C@@H](C)C(=O)[C@H](C)[C@@H](O)[C@]1(C)O [Comparative drug, Clarithromycin, reference compound] | > 100 | 0.1 (≈ 0.134 µM) | > 100 | 1.56 (≈ 2.09 µM) | > 100 |  |  |  | 
2 | CC[C@H]1OC(=O)[C@H](C)[C@@H](OC(=O)Cc2ccccn2)[C@H](C)[C@@H](O[C@@H]2O[C@H](C)C[C@H](N(C)C)[C@H]2O)[C@](C)(OC)C[C@@H](C)C(=O)[C@H](C)[C@H]2N(CCN(C)Cc3cccnc3)C(=O)O[C@]12C [Example 4, 11-{2-[N-methyl-N-(3-pyridylmethyl)amino]ethyl}amino-11-deoxy-3-O-(2-pyridyl)acetyl-5-O-desosaminyl-6-O-methylerythronolide A 11,12-cyclic carbamate] | > 100 | 0.1 (≈ 0.113 µM) | 0.39 (≈ 0.442 µM) | 0.39 (≈ 0.442 µM) | 0.39 (≈ 0.442 µM) | strong antibacterial activity | 0.1 (≈ 0.113 µM) | strong antibacterial activity | 0.2 (≈ 0.227 µM)
